In experiment [1] the test system is ScNeuro 2a (ScN2a) cells producing abnormal prion protein (PrP^Sc). In kind it is cell-based, mouse. As to conditions: 24 hours culture with 0-40 mM HFIP, crystal violet staining, FIG. 1.
Experiment [2] has as its system Neuro 2a (N2a) cells producing normal prion protein (PrP^C). In kind it is cell-based, mouse. The following applies: 24 hours culture with 0-40 mM HFIP, crystal violet staining, FIG. 1.
For experiment [3], the target named is prion protein (PrP^C) in N2a cells (Mus musculus, UniProt P04925). In kind it is cell-based. As to conditions: 6 mM HFIP for 24 hours, protease K 10 μg/ml 37° C. 30 minutes, Western blotting, FIG. 2 #1 to #4.
Sequence of prion protein (PrP^C) in N2a cells (P04925 23-230 limits assumed): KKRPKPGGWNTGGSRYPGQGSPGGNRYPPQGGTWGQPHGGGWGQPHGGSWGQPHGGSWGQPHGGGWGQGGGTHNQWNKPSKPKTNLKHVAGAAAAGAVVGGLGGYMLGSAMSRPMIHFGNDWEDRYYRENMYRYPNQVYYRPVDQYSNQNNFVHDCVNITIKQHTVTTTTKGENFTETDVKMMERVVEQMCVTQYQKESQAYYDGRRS

`OC(C(F)(F)F)C(F)(F)F` [HFIP, 1,1,1,3,3,3-hexafluoro-2-propanol]: the “upper concentration limit at which ScN2a cells can survive” value in experiment [1] is given as 20 mM. The “upper concentration limit of HFIP at which N2a cells can survive” value in experiment [2] is 25 mM. Also, in experiment [3], the “degradation of protein by protease K” value is “degraded by protease K with or without the addition of HFIP”.

For the origin of these results see patent publication US20220249394A1 (priority 2019, published 2022).
